Results as given in patent US20200131238A1, “METHOD FOR PROMOTING ADIPOCYTE DIFFERENTIATION AND OBESITY-RELATED DISEASE TREATMENT” (AMERICAN UNIVERSITY, priority 2018, published 2020).

B1: NRG1 EGF-β peptide: recombinant NRG1 EGF-β domain peptide, 65 amino acids, BioLegend Cat # 711104 (protein, listed as Homo sapiens)
chain: SHLVKCAEKEKTFCVNGGECFMVKDLSNPSRYLCKCPNEFTGDRCQNYVMASFYKHLGIEFMEAE

Columns and labels:
[1] = system: NRG1; assay: NRG1 isoform expression in stem cells after DAC treatment (RT-qPCR); type: cell-based, human
Source text: A. Microarray data showing that NRG1 is preferentially expressed in clonal cell line AF2, both stem cells and adipocytes. UCP1 is a brown adipose tissue (BAT) marker and UCP2 is a white adipose tissue (WAT) marker. Adiponectin (ADIPOQ) shown as a differentiation control. P-values calculated relative to NRG4 using 1-way ANOVA. Analysis of gene expression in mouse adipose precursor cell lines isolated from inguinal (B) or perigonadal (C) depots of a male mouse. […] NRG, Neuregulin; UCP, uncoupling protein; AdipoQ, adiponectin. Isoform-specific epigenetic induction of NRG1 expression in primary human cells, clonal (D) and raw processed lipoaspirate (E). Expression of NRG1 is induced with demethylating agent decitabine (DAC). Types I-III represent distinct transcriptional start sites within the NRG1 locus and produce different mRNA isoforms (see FIG. 7D for map). The Type III isoform is specifically DAC responsive. P-values derived from Tukey's HSD post-hoc test after ANOVA and are relative to corresponding matched DMSO control. Note Type II isoform expression was not detected in the stem cells.
First, by evaluating gene expression in stem cells immediately after DAC treatments (rather than differentiated cells), we minimized secondary gene expression changes caused by the differentiation process itself. […]

[2] = system: AF2 cells; assay: adipose differentiation assay with AF2 clonal cells; type: cell-based, human
Source text: Because patient-derived cells, such as ASCs, are highly heterogeneous, it is vital to ensure that the differences in cell behavior are truly fate decisions and not a measure of non-stem cell contamination (perhaps immune cells, fibroblasts, or other cells). We therefore have performed our experiments with clonally-derived cells expanded in the inventor's laboratory. Many of our experiments use a single clonal line isolated from ASC080414A (Zen-Bio, Inc.), called the AF2 line. Clonal isolation has the advantage of minimizing both genetic and epigenetic variance, which enabled us to identify a highly significant signal in our data (FIG. 6E).
First, by evaluating gene expression in stem cells immediately after DAC treatments (rather than differentiated cells), we minimized secondary gene expression changes caused by the differentiation process itself. Second, hypothesizing that the expression of driver genes will more strongly correlate with differentiation efficiency than passenger genes, we obtained the Pearson's correlation between candidate gene expression in stem cells and the relative formation of adipocytes after 14-18 days of adipogenic induction. Third, we used a clonal cell line (AF2) in order to minimize epigenetic variability between cells. […]

Row | Molecule | up-regulation of one NRG1 isoform (Type III) relative to DMSO control ([1]; 1 μM DAC) | increase of NRG1 Type I isoform ([1]; DAC vs DMSO) | differentiation induction by recombinant NRG1 peptide added to culture media ([2]; AF2 clonal cells) | activating dose of NRG1 peptide ([2]; stem cells, FIGS. 7A,B,C)
1 | Nc1ncn([C@H]2C[C@H](O)[C@@H](CO)O2)c(=O)n1 [DAC, 5-aza-2′-deoxycitidine] | approximately 10 fold | ~2 fold | – | –
2 | B1 | – | – | able to recapitulate the differentiation induction observed with DAC | 200 ng/mL
